Results: the NIST ThermoML archive (doi:10.1016/j.jct.2016.06.020)
Numbers after ± are expanded uncertainties.

Key:
[1] = Crystal; DTA
[2] = Molar enthalpy of transition or fusion; details: Crystal; DSC

## CCN1C(=O)N(C)[C@@H]2[C@H]1N(C)C(=O)N2CC (racemic)
[1]
  Normal melting temperature: 118.6 ± 0.6 °C
[2]
  Molar enthalpy of transition or fusion: 4.97 ± 0.167 kcal/mol
